By EC50 is commonly meant the concentration giving half of the maximal effect.

This passage reports EC50 results from BindingDB's records for doi:10.1016/j.bmcl.2006.03.080 (University of Siena, 2006).

Assay [1] in a line: Antiviral activity against HIV1 Y188L mutant in MT4 cells by MTT assay. On the technique in general: Tetrazolium dyes change colour on reduction, which living cells bring about.
Assay [2] is described as follows: Antiviral activity against wild type HIV1 NL4-3 in MT4 cells by MTT assay.
Assay [3] can be described thus: Antiviral activity against HIV1 K103N mutant in MT4 cells by MTT assay.
The nature of assay [4]: Antiviral activity against HIV1 IRLL98 in MT4 cells by MTT assay.
The nature of assay [5]: Antiviral activity against HIV1 Y181C mutant in MT4 cells by MTT assay.

Each structure is given as a SMILES string.

Turning to `COc1ccc(Sc2nc(Cc3c(F)cccc3F)c(C)c(=O)[nH]2)cc1`, the concentration for a half-maximal effect (EC50) in assay [1] was greater than 57.5 µM; in assay [2], 0.67 µM; in assay [3] it was greater than 57.5 µM; in assay [4], greater than 57.5 µM.
Turning to `COc1ccc(Sc2nc(Cc3c(Cl)cccc3Cl)c(C)c(=O)[nH]2)cc1`, the EC50 was greater than 61.4 µM in assay [1]; 26.5 µM in assay [2]; greater than 61.4 µM in assay [5]; greater than 61.4 µM in assay [3]; greater than 61.4 µM in assay [4].
For the compound `Cc1c(Cc2c(F)cccc2F)nc(Sc2ccc(Cl)cc2)[nH]c1=O`, the EC50 in assay [1] was greater than 66.1 µM; in assay [2], 0.1 µM; in assay [3] it was 8.01 µM; in assay [4], greater than 66.1 µM.
Turning to `Cc1c(Cc2c(Cl)cccc2Cl)nc(Sc2ccc(F)cc2F)[nH]c1=O`, the concentration giving a half-maximal response (EC50) is greater than 60.5 µM in assay [1], 3.36 µM in assay [2], greater than 60.5 µM in assay [3] and 44.7 µM in assay [4].
`Cc1c(Cc2c(F)cccc2F)nc(Sc2ccccc2)[nH]c1=O`: the EC50 was greater than 72.7 µM in assay [1], 0.09 µM in assay [2], 42.5 µM in assay [3] and 16.7 µM in assay [4].
On to `COc1ccc(Sc2nc(Cc3c(Cl)cccc3Cl)c(C)c(=O)[nH]2)cn1`, for which the EC50 in assay [1] was greater than 61.3 µM; in assay [2], 2.72 µM; in assay [5] it was 6.52 µM; in assay [3] it was greater than 61.7 µM; in assay [4], 8.68 µM.
The like results for `Cc1c(Cc2c(Cl)cccc2Cl)nc(Sc2ccc(C#N)cc2)[nH]c1=O` were, in that order, greater than 27.6 µM, 2.49 µM, 5.1 µM, greater than 27.6 µM and greater than 27.6 µM.
Consider `Cc1c(Cc2c(F)cccc2F)nc(Sc2ccc(F)cc2F)[nH]c1=O`, for which the EC50 in assay [1] was greater than 65.8 µM; in assay [2], 0.31 µM; in assay [3], greater than 65.8 µM; in assay [4], 25.8 µM.
Consider `Cc1c(Cc2c(Cl)cccc2Cl)nc(Sc2ccccc2)[nH]c1=O`, for which the concentration for a half-maximal effect (EC50) was greater than 66.3 µM in assay [1]; 1.8 µM in assay [2]; 12.1 µM in assay [5]; greater than 66.3 µM in assay [3]; 4.91 µM in assay [4].
Consider `Cc1cn([C@H]2C[C@H](N=[N+]=[N-])[C@@H](CO)O2)c(=O)[nH]c1=O` [1-((2R,4S,5S)-4-Azido-5-hydroxymethyl-tetrahydro-furan-2-yl)-5-methyl-1H-pyrimidine-2,4-dione], for which the values for the EC50 in assay [1], in assay [3] and in assay [4] were 0.003 µM, 0.003 µM and 0.008 µM, respectively.
